A word on the clearance: it is a measure of how efficiently the substance is removed, as volume per time. Read a low clearance as inefficient removal. A word on the AUC(0-t): it is exposure summed from dosing to a finite time, without extrapolation to infinity. Lower therefore signals less exposure. What is called Cmax is the highest concentration seen after dosing. The term IC50 denotes the concentration needed to halve the response being measured.

The values below come from patent publication US20250268894A1, “MACROCYCLE COMPOUNDS FOR THE TREATMENT OF CANCER” (Hoffmann-La Roche Inc., priority 2022, published 2025).

Series [1] in a line: Single dose pharmacokinetics (PK) study in female BALB/c mice. It counts as in vivo. How it is done:
The purpose of this study was to determine the pharmacokinetics of selected compounds following single intravenous bolus or oral gavage administration in female BALB/c mice. Briefly, two groups of female BALB/c mice (available from Shanghai Lingchang Biotechnology Co., Ltd)(N=3/group) were treated with a single dose of compound intravenously at 3 mg/kg (IV) or orally at 30 mg/kg (PO). Blood samples were collected at 5 min (only for IV), […], 30 min, 1 h, 2 h, 4 h, 7 h and 24 h post-dose. Blood samples were placed on ice until centrifugation to obtain plasma samples. The concentration of compound in plasma samples was determined using LC-MS/MS method. The pharmacokinetic parameters were calculated by non-compartmental analysis.

Another series addresses KRAS G12D-BRAF complex (Homo sapiens (Human), UniProt P01116+P62937, G12D). In words: KRAS-BRAF with CYPA (500 nM) interaction assay (TR-FRET), G12D. It is filed as biochemical. How it is done:
Kras-BRAF with CYPA (500 nM) Interaction Assay In this example, TR-FRET was also used to measure the compound or compound-CYPA dependent disruption of the KRAS G12C-BRAF complex. This protocol was also used to measure disruption of KRAS G12D or KRAS G12V binding to BRAF by a compound of the invention, respectively. […] Compound was present in plate wells as a 16-point 3-fold dilution series starting at a final concentration of 10 μM and incubated for 3 hours. […] TR-FRET signal was read on a […] microplate reader (Ex320 nm, Em 665/615 nm). Compounds that facilitate disruption of the KRAS-BRAF complex were identified as those eliciting a decrease in the TR-FRET ratio relative to DMSO control wells.
(In general: TR-FRET usually uses a lanthanide donor and a delayed reading to cut background.)

The test system of series [2] is phosphorylation of ERK, KRAS G12C in NCI-H358 cells. In words: pERK inhibition assay, KRAS G12C in NCI-H358 cells. It counts as cell-based, human. Particulars: Homo sapiens, NCI-H358, 4 hours. Put shortly:
(§1)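 NCI-H358 (G12C), AGS (G12D) and SW620 (G12V) cells in RPMI-1640/10% FBS, plated overnight, then treated 4 h with compound (0.5% DMSO final). Fixed, methanol-permeabilized; phospho-ERK detected by in-cell ELISA (anti-pERK, HRP secondary, TMB, OD450). IC50 from 4-parameter sigmoidal fit.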

Series [3] relates to phosphorylation of ERK, KRAS G12V in SW620 cells. Nature of the series: pERK inhibition assay, KRAS G12V in SW620. Particulars: Homo sapiens, SW-620, SW620, 4 hours. It counts as cell-based, human. The procedure, abridged:
as §1

For series [4], the system named is Miapaca-2 KRAS G12C + V9Y cells. In words: Stable KRAS mutant cell line viability assay (CellTiter-Glo), G12C + V9Y. It counts as cell-based. Particulars: Homo sapiens, MIA PaCa-2, 72 h, Miapaca-2 mutant cells, 3 d. The source says: (§2) The aim of the study was to determine the potency and efficacy of compounds for cell proliferation using CellTiter-Glo® (CTG) Luminescent Cell Viability Assay (Promega Corp., Madison, WI). We cloned […] KRAS^G12C variant sequences with secondary mutations (V8A, V9Y, S17E, T58I, A59T, S65W, R68S, D69P, M72I, D92R, H95N, Y96D, Q99F, Q99W, Y96H, and F156L) into the Miapaca-2. Totally 14 stable Miapaca-2 mutant cell lines were established through lentivirus infection. For the cell viability assay, cells were dosed with compounds in a 9-point dose-response using a 4 fold dilution series at a top dose of 10 μM. KRAS mutant cells were maintained in DMEM+10% FBS+2.5% HI Horse serum+1% PS+1 μg/mL Puromycin and seeded into 96-well plates at 800-1,500 cells per well 24 h before compound addition and then incubated with compound for 3 d before assaying viability (CellTiter-Glo, Promega). Assays were performed in biological duplicates. Nonlinear regression curves were fitted using Xfit. IC50 (absolute IC50) is the dose at which the estimated viability is 50% relative to untreated wells.
On the technique in general: ATP-based viability assays read luminescence as a measure of living cells.

Series [5] concerns Miapaca-2 KRAS G12C + A59T cells. Nature of the series: Stable KRAS mutant cell line viability assay (CellTiter-Glo), G12C + A59T. It is filed as cell-based. The following applies: Homo sapiens, MIA PaCa-2, 72 h, Miapaca-2 mutant cells, 3 d.
Source text: as §2

The test system of series [6] is Miapaca-2 KRAS G12C + T58I cells. Nature of the series: Stable KRAS mutant cell line viability assay (CellTiter-Glo), G12C + T58I. It counts as cell-based. The following applies: Homo sapiens, MIA PaCa-2, 72 h, Miapaca-2 mutant cells, 3 d.
Source text: as §2

Series [7] concerns Miapaca-2 KRAS G12C + S65W cells. Nature of the series: Stable KRAS mutant cell line viability assay (CellTiter-Glo), G12C + S65W. It counts as cell-based. The following applies: Homo sapiens, MIA PaCa-2, 72 h, Miapaca-2 mutant cells, 3 d.
Source text: as §2

Series [8] relates to Miapaca-2 KRAS G12C + M72I cells. In words: Stable KRAS mutant cell line viability assay (CellTiter-Glo), G12C + M72I. Particulars: Homo sapiens, MIA PaCa-2, 72 h, Miapaca-2 mutant cells, 3 d. It is filed as cell-based.
Source text: as §2

Series [9] concerns Miapaca-2 KRAS G12C + Y96D cells. In words: Stable KRAS mutant cell line viability assay (CellTiter-Glo), G12C + Y96D. It counts as cell-based. Particulars: Homo sapiens, MIA PaCa-2, 72 h, Miapaca-2 mutant cells, 3 d.
Source text: as §2

Series [10] has as its system Miapaca-2 KRAS G12C + Q99W cells. In words: Stable KRAS mutant cell line viability assay (CellTiter-Glo), G12C + Q99W. It counts as cell-based. Particulars: Homo sapiens, MIA PaCa-2, 72 h, Miapaca-2 mutant cells, 3 d.
Source text: as §2

For series [11], the system named is Miapaca-2 KRAS G12C + F156L cells. Nature of the series: Stable KRAS mutant cell line viability assay (CellTiter-Glo), G12C + F156L. It is filed as cell-based. The following applies: Homo sapiens, MIA PaCa-2, 72 h, Miapaca-2 mutant cells, 3 d.
Source text: as §2

Where [12] appears, read: mouse, 30 mg/kg, po, female BALB/c mice, plasma.

Chain of KRAS G12D-BRAF complex (P01116-2 other isoform, or with tags, fused parts or gaps G12D): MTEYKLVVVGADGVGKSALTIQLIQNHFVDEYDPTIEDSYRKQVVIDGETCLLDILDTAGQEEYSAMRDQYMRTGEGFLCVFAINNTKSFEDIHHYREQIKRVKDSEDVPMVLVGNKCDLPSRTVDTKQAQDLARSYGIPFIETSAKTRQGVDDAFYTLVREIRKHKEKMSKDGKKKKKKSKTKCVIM
Chain of KRAS G12D-BRAF complex (P62937 whole entry): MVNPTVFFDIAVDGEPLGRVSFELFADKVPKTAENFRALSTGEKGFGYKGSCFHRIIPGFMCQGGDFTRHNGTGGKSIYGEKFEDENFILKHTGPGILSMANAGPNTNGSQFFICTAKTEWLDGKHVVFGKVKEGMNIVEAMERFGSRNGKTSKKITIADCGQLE

`CO[C@@H](C)c1ncc(N2CCN(CC(F)(F)F)CC2)cc1-c1c2c3cc(ccc3n1CC(F)(F)F)-c1csc(n1)C[C@H](NC(=O)[C@H](C(C)C)N(C)C(=O)N1CCOCC1)C(=O)N1CCC[C@H](N1)C(=O)OCC(C)(C)C2` (atropisomer, axis not shown; (M)) [Example 6] had a F in [1] (30 mg/kg, po, female BALB/c mice) of 29.7%. The “AUC0-last compared with compound A555” value in [1] (30 mg/kg, po, mouse model) was determined as 15 folds. For the same compound, the “Cmax compared with compound A555” value in series [1] (30 mg/kg, po, mouse model) is listed as about 7 folds. The compound further came in with a clearance in series [1] (mouse, 3 mg/kg, iv, female BALB/c mice, plasma) of 3.7 mL/min/kg. The compound also displayed an area under the curve AUC(0-t) in series [1] (setting [12]) of 36800 ng·h/mL. In addition, the Cmax in series [1] (setting [12]) turned out to be 4890 ng/mL. Further, the IC50 at KRAS G12D-BRAF complex turned out to be 71 nM; in series [2] it was 2 nM; in [3], 2 nM; in series [4], 2 nM; in series [5], 11 nM; in series [6] it was 7 nM. Further, the IC50 is 6 nM in series [7]; 3 nM in series [8]; 7 nM in series [9]; 7 nM in [10]; 8 nM in series [11].
